# Assay results from PubChem BioAssay AID210 (DTP/NCI, 2004).
# Where “and” joins values, the source holds several entries; their conditions need not be identical. Equal entries are not always repeated. Inconclusive results and toxic doses are left out.
# System: CD2F1 mice, ip Colon 26 adenocarcinoma, median survival T/C
# Experiment: NCI In Vivo Anticancer Drug Screen. Data for tumor model Colon 26 Adenocarcinoma (intraperitoneal) in CD2F1 (CDF1) mice
# Details: endpoint: median survival time, higher = longer survival
# Method: The antitumor activity of compounds was measured in mice bearing transplantable tumors. Survival or tumor size were measured and the results are expressed as the measurement made in the treated group (T) divided by the measurement made in the vehicle treated control group (C). The tumor model used in this assay is Colon 26 Adenocarcinoma (intraperitoneal) in CD2F1 (CDF1) mice
compound,measurement,setting,value
COc1cc([C@@H]2c3cc4c(cc3[C@@H](OC3OC5COC(C)OC5C(O)C3O)[C@H]3COC(=O)[C@H]23)OCO4)cc(OC)c1O (stereo not given in full),T/C,"dose: 25.0 mg/kg/injection, schedule: Q03DX002 (ip), vehicle: other",103 % of control
same,T/C,"dose: 32.0 mg/kg/injection, schedule: Q04DX003 (ip), vehicle: saline",151 % of control
same,T/C,"dose: 40.0 mg/kg/injection, schedule: Q03DX002 (ip), vehicle: other",120 % of control
same,T/C,"dose: 60.0 mg/kg/injection, schedule: Q03DX002 (ip), vehicle: other",107 % of control
same,T/C,"dose: 64.0 mg/kg/injection, schedule: Q04DX003 (ip), vehicle: saline",193 % of control
COCC1OC(OC2C3=C(C(C)C)CCC3(C)/C=C3\C(CCC3(O)COC)C(C)C2O)C(O)C2OC3OC12OC3(C)C1CO1 (stereo not given),T/C,"dose: 0.78 mg/kg/injection, schedule: Q04DX002 (ip), vehicle: Klucel (hydroxypropylcellulose) (HPC)",105 % of control and 94 % of control
same,T/C,"dose: 1.56 mg/kg/injection, schedule: Q04DX002 (ip), vehicle: Klucel (hydroxypropylcellulose) (HPC)",104 % of control and 106 % of control
same,T/C,"dose: 3.12 mg/kg/injection, schedule: Q04DX002 (ip), vehicle: Klucel (hydroxypropylcellulose) (HPC)",109 % of control and 95 % of control
same,T/C,"dose: 6.25 mg/kg/injection, schedule: Q04DX002 (ip), vehicle: Klucel (hydroxypropylcellulose) (HPC)",116 % of control and 89 % of control and 100 % of control
same,T/C,"dose: 12.5 mg/kg/injection, schedule: Q04DX002 (ip), vehicle: Klucel (hydroxypropylcellulose) (HPC)",103 % of control and 104 % of control and 98 % of control
Cc1[nH]c(=O)[nH]c(=O)c1N(CCF)CCCl,T/C,"dose: 8.0 mg/kg/injection, schedule: Q04DX002 (ip), vehicle: Klucel (hydroxypropylcellulose) (HPC)",111 % of control and 112 % of control
same,T/C,"dose: 16.0 mg/kg/injection, schedule: Q04DX002 (ip), vehicle: Klucel (hydroxypropylcellulose) (HPC)",114 % of control and 121 % of control
same,T/C,"dose: 32.0 mg/kg/injection, schedule: Q04DX002 (ip), vehicle: Klucel (hydroxypropylcellulose) (HPC)",122 % of control
CO[C@H](C(=O)[C@@H](O)[C@@H](C)O)[C@@H]1Cc2cc3cc(OC4CC(OC5CC(O)C(O)C(C)O5)C(O)C(C)O4)c(C)c(O)c3c(O)c2C(=O)[C@H]1OC1CC(OC2CC(OC3CC(C)(O)C(O)C(C)O3)C(O)C(C)O2)C(O)C(C)O1 (stereo not given in full),T/C,"dose: 0.25 mg/kg/injection, schedule: Q04DX003 (ip), vehicle: saline",96 % of control
same,T/C,"dose: 0.5 mg/kg/injection, schedule: Q04DX003 (ip), vehicle: saline",98 % of control
same,T/C,"dose: 1.0 mg/kg/injection, schedule: Q04DX003 (ip), vehicle: saline",98 % of control
same,T/C,"dose: 2.0 mg/kg/injection, schedule: Q04DX003 (ip), vehicle: saline",100 % of control
CCC1CN2C(=N1)c1ccccc1-c1cc(Cl)ccc12 (stereo not given),T/C,"dose: 2.5 mg/kg/injection, schedule: Q04DX003 (ip), vehicle: saline",102 % of control
same,T/C,"dose: 2.5 mg/kg/injection, schedule: Q04DX003 (ip), vehicle: suspension in saline",107 % of control
same,T/C,"dose: 5.0 mg/kg/injection, schedule: Q04DX003 (ip), vehicle: saline",111 % of control
same,T/C,"dose: 5.0 mg/kg/injection, schedule: Q04DX003 (ip), vehicle: suspension in saline",101 % of control
same,T/C,"dose: 10.0 mg/kg/injection, schedule: Q04DX003 (ip), vehicle: saline",92 % of control
same,T/C,"dose: 10.0 mg/kg/injection, schedule: Q04DX003 (ip), vehicle: suspension in saline",106 % of control
same,T/C,"dose: 40.0 mg/kg/injection, schedule: Q04DX003 (ip), vehicle: saline",121 % of control
same,T/C,"dose: 40.0 mg/kg/injection, schedule: Q04DX003 (ip), vehicle: suspension in saline",124 % of control
CCOC(=O)CC(SP(=S)(OC)OC)C(=O)OCC (stereo not given),T/C,"dose: 25.0 mg/kg/injection, schedule: Q04DX002 (ip), vehicle: saline",103 % of control
same,T/C,"dose: 50.0 mg/kg/injection, schedule: Q04DX002 (ip), vehicle: saline",94 % of control
same,T/C,"dose: 100.0 mg/kg/injection, schedule: Q04DX002 (ip), vehicle: saline",104 % of control
same,T/C,"dose: 200.0 mg/kg/injection, schedule: Q04DX002 (ip), vehicle: saline",90 % of control
same,T/C,"dose: 400.0 mg/kg/injection, schedule: Q04DX002 (ip), vehicle: saline",91 % of control
